According to patent US4667030A, “Hydrazide succinimide derivatives of antineoplastic indole-dihydroindole alkaloids” (priority 1985, dated 1987):
Values after ≈ are worked out from the molar mass of the structure shown. Where a name gives a salt, the structure may show the parent alone.

What was measured:
[1] = tested on: CCRF-CEM, a human acute lymphoblastic leukemia cell line; experiment: CCRF-CEM cytotoxicity screen (cytostatic activity); format: cell-based; conditions: for IC50: Homo sapiens, read-out: IC50 (50% minimum inhibitory concentration)
Experimental: The compounds of this invention have utility as anti-neoplastic compounds active against transplanted tumors in mice. They also have […]. As evidence of such utility, the cytostatic activity of the compounds was measured by standard procedures against CCRF-CEM, a human acute lymphoblastic leukemia cell line. In the table, column 1 gives the name of the compound, and column 2 the 50% minimum inhibitory concentration of the drug from column 1 in mcg./ml.

[2] = tested on: 6C3HED lymphosarcoma; experiment: In vivo test, transplanted 6C3HED lymphosarcoma in mice; conditions: for % INHIBITION / In vivo test: Toxic: 6C3HED; for activity against transplanted tumor: 6C3HED lymphosarcoma, mice
[3] = tested on: B-16 Sub.C. melanoma; experiment: In vivo test, transplanted B-16 Sub.C. melanoma in mice; conditions: for activity against transplanted tumor: B-16 Sub.C. melanoma, mice
[4] = tested on: C-26 colon carcinoma; experiment: In vivo test, transplanted C-26 colon carcinoma in mice; conditions: for activity against transplanted tumor: C-26 colon carcinoma, mice
[5] = tested on: X-5563 plasma cell myeloma; experiment: In vivo test, transplanted X-5563 plasma cell myeloma in mice; conditions: for activity against transplanted tumor: X-5563 plasma cell myeloma, mice
[6] = tested on: vincristine-resistant leukemias; conditions: common neoplasms including germ-cell tumors; cited from earlier work

CC[C@H]1C[C@@H]2CN(CCc3c([nH]c4ccccc34)[C@@](C(=O)OC)(c3cc4c(cc3OC)N(C)[C@H]3[C@@](O)(C(=O)NN5C(=O)CCC5=O)[C@H](O)[C@]5(CC)C=CCN6CC[C@]43[C@@H]65)C2)C1 [4'-deoxy-4-desacetylleurosidine 3-carboxhydrazide N^2-succinimide sulfate]
IC50 [1]: 0.075 µg/mL

CC[C@]1(O)C[C@@H]2CN(CCc3c([nH]c4ccccc34)[C@@](C(=O)OC)(c3cc4c(cc3OC)N(C)[C@H]3[C@@](O)(C(=O)NN5C(=O)CCC5=O)[C@H](O)[C@]5(CC)C=CCN6CC[C@]43[C@@H]65)C2)C1 [4-Desacetyl VLB 3-carboxhydrazide N^2 --succinimide sulfate]
IC50 [1]: 0.02 µg/mL
% INHIBITION ([2]; i.v. x 1, 1.25 mg/kg): 100%
% INHIBITION ([2]; i.v. x 1, 2.5 mg/kg): 100%
In vivo test: Toxic ([2]; i.v. x 1, 5 mg/kg): Toxic

CC[C@]1(O)C[C@@H]2CN(CCc3c([nH]c4ccccc34)[C@@](C(=O)OC)(c3cc4c(cc3OC)N(C)[C@H]3[C@@](O)(C(=O)NN5C(=O)CCCC5=O)[C@H](O)[C@]5(CC)C=CCN6CC[C@]43[C@@H]65)C2)C1 [4-Desacetyl VLB Hydrazide N^2 --Glutarimide Sulfate]
% INHIBITION ([2]; i.v. x 1, 0.0625 mg/kg): 79%
% INHIBITION ([2]; i.v. x 1, 0.125 mg/kg): 80%
% INHIBITION ([2]; i.v. x 1, 0.25 mg/kg): 100%
% INHIBITION ([2]; i.v. x 1, 0.5 mg/kg): 100%
% INHIBITION ([2]; i.v. x 1, 1 mg/kg): 100%
In vivo test: Toxic ([2]; i.v. x 1, 2 mg/kg): Toxic
In vivo test: Toxic ([2]; i.v. x 1, 4 mg/kg): Toxic
In vivo test: Toxic ([2]; i.v. x 1, 8 mg/kg): Toxic

CCC(=O)O[C@@H]1[C@]2(CC)C=CCN3CC[C@@]4(c5cc([C@@]6(C(=O)OC)C[C@H]7CN(CCc8c6[nH]c6ccccc86)C[C@](O)(CC)C7)c(OC)cc5N(C)[C@H]4[C@@]1(O)C(=O)NN1C(=O)CCC1=O)[C@@H]32 [4-Propionyl VLB 3-carboxhydrazide N^2 --succinimide sulfate]
IC50 [1]: 0.01 µg/mL
% INHIBITION ([2]; i.v. x 1, 1.25 mg/kg): 100%
% INHIBITION ([2]; i.v. x 1, 2.5 mg/kg): 100%
In vivo test: Toxic ([2]; i.v. x 1, 5 mg/kg): Toxic

CC[C@]1(O)C[C@@H]2CN(CCc3c([nH]c4ccccc34)[C@@](C(=O)OC)(c3cc4c(cc3OC)N(C)[C@H]3[C@@](O)(C(=O)NN5C(=O)CCC5=O)[C@H](OC(=O)CCC(=O)O)[C@]5(CC)C=CCN6CC[C@]43[C@@H]65)C2)C1 [4-Succinoyl VLB 3-carboxhydrazide N^2-succinimide]
IC50 [1]: 0.5 µg/mL (≈ 0.526 µM)

CC[C@]1(O)C[C@@H]2CN(CCc3c([nH]c4ccccc34)[C@@](C(=O)OC)(c3cc4c(cc3OC)N(C)[C@H]3[C@@](O)(C(=O)NN5C(=O)CCCC5=O)[C@H](O)[C@]5(CC)C=CCN6CC[C@]43[C@@H]65)C2)C1 [4-desacetyl VLB 3-carboxhydrazide N^2-glutarimide]
activity against transplanted tumor [2]: outstanding activity
activity against transplanted tumor [3]: outstanding activity
activity against transplanted tumor [4]: outstanding activity
activity against transplanted tumor [5]: outstanding activity

CC[C@]1(O)C[C@@H]2CN(CCc3c([nH]c4ccccc34)[C@@](C(=O)OC)(c3cc4c(cc3OC)N(C)[C@H]3[C@@](O)(C(=O)NN5C(=O)CCC5=O)[C@H](O)[C@]5(CC)C=CCN6CC[C@]43[C@@H]65)C2)C1 [4-desacetyl VLB 3-carboxhydrazide N^2-succinimide]
activity against transplanted tumor [2]: outstanding activity
activity against transplanted tumor [3]: outstanding activity
activity against transplanted tumor [4]: outstanding activity
activity against transplanted tumor [5]: outstanding activity

CC[C@]1(O)C[C@@H]2CN(CCc3c([nH]c4ccccc34)[C@@](C(=O)OC)(c3cc4c(cc3OC)N(C)[C@H]3[C@@](O)(C(N)=O)[C@H](O)[C@]5(CC)C=CCN6CC[C@]43[C@@H]65)C2)C1 [vindesine, 4-desacetyl VLB 3-carboxamide]
effectiveness in treating leukemias and neoplasms [6]: effective in treating some vincristine-resistant leukemias in addition to many common neoplasms including germ-cell tumors

VLB 3-carboxhydrazide N^2 --succinimide sulfate
IC50 (50% minimum inhibitory concentration) [1]: 0.01 µg/mL
% INHIBITION ([2]; i.v. x 1, 0.0625 mg/kg): 11%
% INHIBITION ([2]; i.v. x 1, 0.125 mg/kg): 94%
% INHIBITION ([2]; i.v. x 1, 0.25 mg/kg): 100%
% INHIBITION ([2]; i.v. x 1, 0.5 mg/kg): 100%
% INHIBITION ([2]; i.v. x 1, 1 mg/kg): 100%
In vivo test: Toxic ([2]; i.v. x 1, 2 mg/kg): Toxic
In vivo test: Toxic ([2]; i.v. x 1, 4 mg/kg): Toxic
% INHIBITION ([3]; B-16 Sub. C., i.v. 1 & 7, dose 0.5): 51%
% INHIBITION ([3]; B-16 Sub. C., i.v. 1 & 7, dose 1): 82%
% INHIBITION ([3]; B-16 Sub. C., i.v. 1 & 7, dose 2): 91%
In vivo test: Toxic ([3]; B-16 Sub. C., i.v. 1 & 7, dose 4): Toxic
% INHIBITION ([3]; B-16 Sub. C., i.v. 1 & 7, dose 25 (so in the source)): 8%
% INHIBITION ([4]; C-26, i.v. 1 & 7, dose 0.25): 0%
% INHIBITION ([4]; C-26, i.v. 1 & 7, dose 0.5): 0%
% INHIBITION ([4]; C-26, i.v. 1 & 7, dose 1): 50%
% INHIBITION ([4]; C-26, i.v. 1 & 7, dose 2): 73%
In vivo test: Toxic ([4]; C-26, i.v. 1 & 7, dose 4): Toxic
% INHIBITION ([5]; X5563, i.v. 1 & 7, dose 0.25): 25%
% INHIBITION ([5]; X5563, i.v. 1 & 7, dose 0.5): 30%
% INHIBITION ([5]; X5563, i.v. 1 & 7, dose 1): 59%
% INHIBITION ([5]; X5563, i.v. 1 & 7, dose 2): 94%
In vivo test: Toxic ([5]; X5563, i.v. 1 & 7, dose 4): Toxic
